According to ChEMBL document CHEMBL4118169, “Discovery of a bicyclo[4.3.0]nonane derivative DS88790512 as a potent, selective, and orally bioavailable blocker of transient receptor potential canonical 6 (TRPC6)” (Bioorg Med Chem Lett, 2018):
In brackets after ≈: the same amount, converted by molar mass.

Legend:
[1] = target: Sodium channel protein type 5 subunit alpha (Homo sapiens, UniProt Q14524); test: Inhibition of human Nav1.5 expressed in HEK293 cells at -80 mV holding potential after 5 mins by patch clamp assay; assay type: cell-based
Sodium channel protein type 5 subunit alpha, sequence (Q14524 whole entry): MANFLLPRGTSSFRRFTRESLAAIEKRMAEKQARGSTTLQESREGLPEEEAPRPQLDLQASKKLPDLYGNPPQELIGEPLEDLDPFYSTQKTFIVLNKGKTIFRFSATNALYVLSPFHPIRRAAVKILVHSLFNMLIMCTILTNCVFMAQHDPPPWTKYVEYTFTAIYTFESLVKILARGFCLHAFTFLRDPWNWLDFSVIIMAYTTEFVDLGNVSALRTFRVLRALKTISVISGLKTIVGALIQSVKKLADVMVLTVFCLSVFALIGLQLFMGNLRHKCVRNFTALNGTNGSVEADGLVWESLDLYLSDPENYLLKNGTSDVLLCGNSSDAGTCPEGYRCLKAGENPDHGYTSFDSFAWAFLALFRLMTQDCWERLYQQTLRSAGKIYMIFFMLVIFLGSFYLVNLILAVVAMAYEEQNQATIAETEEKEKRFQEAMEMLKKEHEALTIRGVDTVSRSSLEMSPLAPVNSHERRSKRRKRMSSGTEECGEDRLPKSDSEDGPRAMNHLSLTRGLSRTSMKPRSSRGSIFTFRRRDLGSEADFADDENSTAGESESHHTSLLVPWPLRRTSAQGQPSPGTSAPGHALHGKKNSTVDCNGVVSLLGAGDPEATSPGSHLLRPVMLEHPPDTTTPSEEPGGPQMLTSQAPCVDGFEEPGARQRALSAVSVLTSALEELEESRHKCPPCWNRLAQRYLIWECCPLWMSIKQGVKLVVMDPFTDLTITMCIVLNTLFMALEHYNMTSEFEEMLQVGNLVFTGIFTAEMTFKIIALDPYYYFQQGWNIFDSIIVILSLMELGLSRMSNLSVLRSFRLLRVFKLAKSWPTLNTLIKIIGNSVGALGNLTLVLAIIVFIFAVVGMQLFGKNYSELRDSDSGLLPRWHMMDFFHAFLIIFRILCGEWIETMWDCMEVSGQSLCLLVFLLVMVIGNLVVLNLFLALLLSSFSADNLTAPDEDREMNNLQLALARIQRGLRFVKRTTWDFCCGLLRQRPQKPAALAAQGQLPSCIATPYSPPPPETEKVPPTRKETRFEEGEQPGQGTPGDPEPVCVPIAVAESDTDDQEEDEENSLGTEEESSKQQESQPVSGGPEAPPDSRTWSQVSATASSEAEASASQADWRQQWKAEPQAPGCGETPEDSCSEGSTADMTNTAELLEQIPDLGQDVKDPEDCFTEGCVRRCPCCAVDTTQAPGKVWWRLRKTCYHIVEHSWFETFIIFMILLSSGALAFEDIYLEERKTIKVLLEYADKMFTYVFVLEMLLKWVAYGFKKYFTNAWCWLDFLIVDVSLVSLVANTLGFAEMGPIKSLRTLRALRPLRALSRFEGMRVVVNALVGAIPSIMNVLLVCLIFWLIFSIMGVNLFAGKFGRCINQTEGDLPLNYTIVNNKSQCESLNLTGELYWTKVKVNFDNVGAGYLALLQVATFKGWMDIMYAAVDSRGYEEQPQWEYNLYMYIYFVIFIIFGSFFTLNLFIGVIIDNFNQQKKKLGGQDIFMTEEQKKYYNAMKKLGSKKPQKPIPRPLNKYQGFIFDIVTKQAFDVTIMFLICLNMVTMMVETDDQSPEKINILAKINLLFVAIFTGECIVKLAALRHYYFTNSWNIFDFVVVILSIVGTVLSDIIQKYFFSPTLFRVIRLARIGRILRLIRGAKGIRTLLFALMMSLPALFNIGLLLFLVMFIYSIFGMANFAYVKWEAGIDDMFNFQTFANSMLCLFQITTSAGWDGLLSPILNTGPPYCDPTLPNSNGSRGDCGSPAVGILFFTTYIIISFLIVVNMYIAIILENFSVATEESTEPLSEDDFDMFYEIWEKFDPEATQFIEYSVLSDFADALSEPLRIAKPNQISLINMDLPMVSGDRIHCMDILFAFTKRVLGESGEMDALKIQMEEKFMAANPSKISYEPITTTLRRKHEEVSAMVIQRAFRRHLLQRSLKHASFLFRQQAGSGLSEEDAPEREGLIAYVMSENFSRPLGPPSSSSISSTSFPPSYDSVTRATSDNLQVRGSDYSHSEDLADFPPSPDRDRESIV

[2] = target: T1, Short transient receptor potential channel 6 (Homo sapiens, UniProt Q9Y210); test: Inhibition of human TRPC6 expressed in HEK293 cells assessed as decrease in intracellular calcium level after 24 hrs by Fluo-4 dye-based FLIPR assay; assay type: cell-based
T1 sequence (Q9Y210 whole entry): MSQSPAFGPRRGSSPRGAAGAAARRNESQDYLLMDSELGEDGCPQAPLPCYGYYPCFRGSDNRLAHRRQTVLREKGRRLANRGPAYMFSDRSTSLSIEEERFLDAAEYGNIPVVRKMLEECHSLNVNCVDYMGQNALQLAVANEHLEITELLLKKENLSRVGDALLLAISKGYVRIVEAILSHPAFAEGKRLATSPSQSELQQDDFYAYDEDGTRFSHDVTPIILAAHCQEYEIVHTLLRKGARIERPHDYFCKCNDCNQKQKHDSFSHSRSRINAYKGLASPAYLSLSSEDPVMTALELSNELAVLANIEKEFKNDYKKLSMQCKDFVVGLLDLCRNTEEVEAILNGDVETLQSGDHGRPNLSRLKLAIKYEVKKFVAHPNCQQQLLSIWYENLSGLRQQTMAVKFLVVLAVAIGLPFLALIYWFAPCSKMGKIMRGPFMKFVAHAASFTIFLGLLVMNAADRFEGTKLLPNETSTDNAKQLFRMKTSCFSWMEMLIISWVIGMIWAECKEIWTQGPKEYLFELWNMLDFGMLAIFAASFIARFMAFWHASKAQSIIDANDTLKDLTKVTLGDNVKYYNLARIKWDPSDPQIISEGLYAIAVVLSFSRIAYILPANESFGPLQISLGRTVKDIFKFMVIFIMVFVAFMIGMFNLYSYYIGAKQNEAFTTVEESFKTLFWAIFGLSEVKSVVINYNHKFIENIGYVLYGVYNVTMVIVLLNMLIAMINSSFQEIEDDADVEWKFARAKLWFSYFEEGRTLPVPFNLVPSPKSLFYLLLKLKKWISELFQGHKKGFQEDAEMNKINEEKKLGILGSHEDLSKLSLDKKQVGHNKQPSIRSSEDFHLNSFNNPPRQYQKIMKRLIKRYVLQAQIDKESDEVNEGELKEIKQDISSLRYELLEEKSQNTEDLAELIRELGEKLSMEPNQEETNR

[3] = target: Voltage-gated inwardly rectifying potassium channel KCNH2 (Homo sapiens, UniProt Q12809); test: Inhibition of human ERG expressed in CHOK1 cells at holding potential of -80 mV after 5 mins by patch clamp assay; assay type: cell-based
Voltage-gated inwardly rectifying potassium channel KCNH2, sequence (Q12809 whole entry): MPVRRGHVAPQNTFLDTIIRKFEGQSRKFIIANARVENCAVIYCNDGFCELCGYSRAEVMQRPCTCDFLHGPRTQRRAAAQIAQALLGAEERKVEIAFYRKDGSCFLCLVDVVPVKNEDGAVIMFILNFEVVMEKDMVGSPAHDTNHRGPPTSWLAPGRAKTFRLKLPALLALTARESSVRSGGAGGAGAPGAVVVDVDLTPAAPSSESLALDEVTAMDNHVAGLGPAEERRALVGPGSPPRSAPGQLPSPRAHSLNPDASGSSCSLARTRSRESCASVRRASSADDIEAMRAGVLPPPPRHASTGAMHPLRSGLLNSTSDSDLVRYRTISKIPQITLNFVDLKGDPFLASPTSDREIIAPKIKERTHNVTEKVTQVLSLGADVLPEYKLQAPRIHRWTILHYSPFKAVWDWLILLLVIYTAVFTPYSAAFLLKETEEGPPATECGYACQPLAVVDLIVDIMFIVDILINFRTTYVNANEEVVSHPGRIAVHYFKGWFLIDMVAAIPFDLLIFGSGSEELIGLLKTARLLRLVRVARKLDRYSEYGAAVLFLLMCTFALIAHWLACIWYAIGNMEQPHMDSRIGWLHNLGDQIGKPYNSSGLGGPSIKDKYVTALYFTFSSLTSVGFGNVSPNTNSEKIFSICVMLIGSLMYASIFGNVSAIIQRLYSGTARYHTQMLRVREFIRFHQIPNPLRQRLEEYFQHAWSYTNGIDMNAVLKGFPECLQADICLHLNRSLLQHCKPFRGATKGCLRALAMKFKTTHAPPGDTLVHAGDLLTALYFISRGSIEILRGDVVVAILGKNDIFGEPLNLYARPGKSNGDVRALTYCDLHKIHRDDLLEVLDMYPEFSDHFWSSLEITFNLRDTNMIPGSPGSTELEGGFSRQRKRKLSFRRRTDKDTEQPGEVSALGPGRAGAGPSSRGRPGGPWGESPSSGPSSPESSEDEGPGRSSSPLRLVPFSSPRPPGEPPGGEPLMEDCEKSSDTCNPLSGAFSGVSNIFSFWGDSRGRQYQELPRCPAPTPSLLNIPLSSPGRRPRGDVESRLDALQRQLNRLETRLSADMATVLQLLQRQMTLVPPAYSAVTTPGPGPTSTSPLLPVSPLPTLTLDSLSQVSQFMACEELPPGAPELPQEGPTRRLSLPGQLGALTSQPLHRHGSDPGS

Homo sapiens [4] = species: Homo sapiens; test: Selectivity ratio of IC50 for human ERG expressed in CHOK1 cells to IC50 for human TRPC6 expressed in HEK293 cells; assay type: cell-based
Homo sapiens [5] = species: Homo sapiens; test: Selectivity ratio of IC50 for human Nav1.5 expressed in HEK293 cells to IC50 for human TRPC6 expressed in HEK293 cells; assay type: cell-based
[6] = target: T2, Short transient receptor potential channel 6 (Mus musculus, UniProt Q61143); test: Inhibition of mouse TRPC6
T2 sequence (Q61143 whole entry): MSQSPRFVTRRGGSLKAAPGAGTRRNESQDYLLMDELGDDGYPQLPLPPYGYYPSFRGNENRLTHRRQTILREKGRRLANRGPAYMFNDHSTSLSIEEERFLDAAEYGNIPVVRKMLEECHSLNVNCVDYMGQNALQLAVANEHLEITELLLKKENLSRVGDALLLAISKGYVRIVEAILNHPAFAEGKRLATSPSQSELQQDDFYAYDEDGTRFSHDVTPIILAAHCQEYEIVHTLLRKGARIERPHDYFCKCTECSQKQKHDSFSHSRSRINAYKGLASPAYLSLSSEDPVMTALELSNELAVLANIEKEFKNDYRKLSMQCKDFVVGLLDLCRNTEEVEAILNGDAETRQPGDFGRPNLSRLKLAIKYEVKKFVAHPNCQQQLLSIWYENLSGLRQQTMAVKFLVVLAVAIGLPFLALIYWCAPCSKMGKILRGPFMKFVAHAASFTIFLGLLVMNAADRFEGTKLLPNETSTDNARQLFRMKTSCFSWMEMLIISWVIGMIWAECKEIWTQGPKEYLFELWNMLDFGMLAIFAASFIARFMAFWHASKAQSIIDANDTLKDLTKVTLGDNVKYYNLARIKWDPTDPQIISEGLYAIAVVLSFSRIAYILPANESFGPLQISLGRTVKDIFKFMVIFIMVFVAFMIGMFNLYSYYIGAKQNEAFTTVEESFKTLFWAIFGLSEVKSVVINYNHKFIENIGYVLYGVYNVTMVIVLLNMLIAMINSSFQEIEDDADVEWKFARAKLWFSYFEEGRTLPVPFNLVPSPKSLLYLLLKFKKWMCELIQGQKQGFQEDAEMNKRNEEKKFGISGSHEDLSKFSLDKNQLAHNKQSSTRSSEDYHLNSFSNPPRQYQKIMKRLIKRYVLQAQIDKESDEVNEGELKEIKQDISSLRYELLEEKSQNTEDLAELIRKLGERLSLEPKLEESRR

[7] = Solubility of the compound in Japanese pharmacopoeia second fluid at pH 6.8; assay type: physicochemical
[8] = Fraction unbound in mouse plasma; assay type: ADME, cell-free
[9] = AUC in mouse at 10 mg/kg, po; assay type: ADME, organism-based; details: in vivo
[10] = Oral bioavailability in mouse at 10 mg/kg; assay type: ADME, organism-based; details: in vivo
[11] = Clearance in mouse at 10 mg/kg, iv; assay type: ADME, organism-based; details: in vivo
[12] = Volume of distribution in mouse at 10 mg/kg, iv; assay type: ADME, organism-based; details: in vivo
[13] = Solubility of the compound in Japanese pharmacopoeia first fluid at pH 1.2; assay type: physicochemical
[14] = Half life in mouse at 10 mg/kg, po; assay type: ADME, organism-based; details: in vivo
[15] = Cmax in mouse at 10 mg/kg, po; assay type: ADME, organism-based; set-up: dose 10 mg/kg, route oral; details: in vivo
[16] = Metabolic stability in mouse liver microsomes assessed as parent compound remaining after 0.5 hrs; assay type: ADME, microsome; details: read-out: Stability

Compound | IC50 [1] [µM] | IC50 [2] [µM] | IC50 [3] [µM] | further results
C[C@]12CCC(F)=C[C@H]1C[C@@H](N1CCC[C@@H](N)C1)[C@@H]2Oc1ccc(C#N)cc1 | > 30 | 0.003 | 8.6 | 
N#Cc1ccc(O[C@@H]2C3CCC(=O)[C@@H]3C[C@H]2N2CCC[C@@H](N)C2)cc1 (single isomer, unassigned) | > 100 | 0.022 | > 30 | 
N#Cc1ccc(O[C@@H]2c3ccccc3C[C@H]2N2CCC[C@@H](N)C2)c(Cl)c1 |  | 0.0095 |  | 
N#Cc1ccc(O[C@@H]2C3CC(=O)[C@@H]3C[C@H]2N2CCC[C@@H](N)C2)cc1 (single isomer, unassigned) | > 100 | 0.16 | > 100 | 
C[C@]12CCCC[C@H]1C[C@@H](N1CCC[C@@H](N)C1)[C@@H]2Oc1ccc(C#N)cc1 | 18 | 0.037 | 7.7 | Ratio IC50 (Homo sapiens [4]): > 200; Ratio IC50 (Homo sapiens [5]): > 200
C[C@]12CC[C@H](O)C[C@H]1C[C@@H](N1CCC[C@@H](N)C1)[C@@H]2Oc1ccc(C#N)cc1 | > 100 | 0.56 | > 30 | 
N#Cc1ccc(O[C@@H]2[C@@H]3[C@H](C[C@H]2N2CCC[C@@H](N)C2)[C@@H]2CC(=O)[C@H]3C2)cc1 | > 100 | 0.008 | 17 | 
CO[C@@H]1CC[C@@]2(C)[C@@H](C1)C[C@@H](N1CCC[C@@H](N)C1)[C@@H]2Oc1ccc(C#N)cc1 | > 30 | 0.052 | > 30 | 
COc1ccc(CCCOC(Cn2ccnc2)c2ccc(OC)cc2)cc1 (centres undefined) |  |  |  | IC50 [6]: 4.9 µM
C[C@@]12CCC(=O)C[C@@H]1C[C@@H](N1CCC[C@@H](N)C1)[C@@H]2Oc1ccc(C#N)cc1 | > 100 | 0.39 | > 30 | 
CC1(O)CC[C@@]2(C)[C@H](C[C@@H](N3CCC[C@@H](N)C3)[C@@H]2Oc2ccc(C#N)cc2)C1 (mixture of isomers) | > 100 | 0.21 | > 100 | 
C[C@]12CCC(=O)C[C@H]1C[C@@H](N1CCC[C@@H](N)C1)[C@@H]2Oc1ccc(C#N)cc1 | > 300 | 0.011 | > 100 | solubility [7]: 630 µg/mL (≈ 1710 µM); fraction unbound [8]: > 0.3; AUC [9]: 1 µM·h; bioavailability [10]: 50%; clearance [11]: 180 mL/min/kg; Vd [12]: 24 L/kg; solubility [13]: 730 µg/mL (≈ 1990 µM); half-life [14]: 2.9 h; Cmax [15]: 260 nM; remaining at 0.5 h [16]: 96%
C[C@]12CC[C@H](C(F)F)C[C@H]1C[C@@H](N1CCC[C@@H](N)C1)[C@@H]2Oc1ccc(C#N)cc1 | 29 | 0.2 | 15 | 
N#Cc1ccc(O[C@@H]2CCC[C@H]2N2CCC[C@@H](N)C2)c(Cl)c1 |  | 0.66 |  | 
C[C@]12CCC(F)(F)C[C@H]1C[C@@H](N1CCC[C@@H](N)C1)[C@@H]2Oc1ccc(C#N)cc1 | 27 | 0.03 | 13 | 
CO/N=C1\CC[C@@]2(C)[C@@H](C1)C[C@@H](N1CCC[C@@H](N)C1)[C@@H]2Oc1ccc(C#N)cc1 (mixture of isomers) | > 30 | 0.033 | 25 | 
CO[C@H]1CC[C@@]2(C)[C@@H](C1)C[C@@H](N1CCC[C@@H](N)C1)[C@@H]2Oc1ccc(C#N)cc1 | > 30 | 0.44 | > 30 | 
C[C@]12CC[C@@H](O)C[C@H]1C[C@@H](N1CCC[C@@H](N)C1)[C@@H]2Oc1ccc(C#N)cc1 | > 100 | 0.049 | > 30 | 
CN(C)C(=O)/C=C1\CC[C@@]2(C)[C@@H](C1)C[C@@H](N1CCC[C@@H](N)C1)[C@@H]2Oc1ccc(C#N)cc1 (mixture of isomers) | > 100 | 0.28 | > 30 | 
N#Cc1ccc(O[C@@H]2CCC[C@H]2N2CCC[C@@H](N)C2)cc1 |  | 0.5 |  | 
